# Experimental data reported in ChEMBL document CHEMBL1145733, “N-isonicotinoyl-(L)-4-aminophenylalanine derivatives as tight binding VLA-4 antagonists” (Bioorg Med Chem Lett, 2003).
# Tests used:
# Integrin alpha-4/beta-1 [1] = molecular target: T1, Integrin alpha-4/beta-1 (Homo sapiens, UniProt P05556+P13612); assay: Inhibition of [125I]VCAM-Ig binding to VLA-4 of Jurkat cells in the presence of Mn2+; type: cell-based
# Integrin alpha-4/beta-1 [2] = molecular target: T1, Integrin alpha-4/beta-1; assay: Inhibition of [125I]VCAM-Ig binding to VLA-4 of Jurkat cells in the presence of [Ca2+]; type: cell-based
# Integrin alpha-4/beta-1 [3] = molecular target: T1, Integrin alpha-4/beta-1; assay: Dissociation from Very late antigen 4 (VLA-4); type: protein-complex assay
# Integrin alpha-4/beta-1 [4] = molecular target: T1, Integrin alpha-4/beta-1; assay: Inhibition of VLA-4 binding in Jurkat cells in the presence of Mg2+; type: cell-based
# [5] = Plasma clearance was determined in Beagle dog at a dose of 1 mg/kg by iv administration; type: ADME, organism-based, Canis lupus familiaris; parameters: dose 1 mg/kg, route intravenous; conditions: read-out: Clp
# [6] = Oral bioavailability in Sprague-Dawley rats at a dose of 2 mg/kg by po administration; type: ADME, organism-based; conditions: rat, in vivo
# [7] = Half life period was determined in Sprague-Dawley rats at a dose of 1 mg/kg by iv administration; type: ADME, organism-based; parameters: dose 1 mg/kg, route intravenous; conditions: rat, in vivo
# [8] = Half life period was determined in rhesus monkey at a dose of 1 mg/kg by iv administration; type: ADME, organism-based; parameters: dose 1 mg/kg, route intravenous; conditions: cercopithecidae, in vivo
# [9] = Plasma clearance was determined in Sprague-Dawley rats at a dose of 1 mg/kg by iv administration; type: ADME, organism-based; parameters: dose 1 mg/kg, route intravenous; conditions: rat, read-out: Clp
# [10] = Oral bioavailability in rhesus monkey at a dose of 2 mg/kg by po administration; type: ADME, organism-based, Macaca mulatta; conditions: in vivo
# [11] = Oral bioavailability in Beagle dog at a dose of 2 mg/kg by po administration; type: ADME, organism-based, Canis lupus familiaris; conditions: in vivo
# Canis familiaris = assay: Unbound plasma was determined in Beagle dog at a dose of 1 mg/kg by iv administration; type: ADME, organism-based, Canis lupus familiaris; parameters: dose 1 mg/kg, route intravenous; conditions: in vivo
# [12] = Plasma clearance was determined in rhesus monkey at a dose of 1 mg/kg by iv administration; type: ADME, organism-based; parameters: dose 1 mg/kg, route intravenous; conditions: cercopithecidae, read-out: Clp
# Rattus norvegicus = assay: Unbound plasma was determined in Sprague-Dawley rats at a dose of 1 mg/kg by iv administration; type: ADME, organism-based; parameters: dose 1 mg/kg, route intravenous; conditions: in vivo
# [13] = Half life period was determined in Beagle dog at a dose of 1 mg/kg by iv administration; type: ADME, organism-based, Canis lupus familiaris; parameters: dose 1 mg/kg, route intravenous; conditions: in vivo
# [14] = Unbound plasma was determined in rhesus monkey at a dose of 1 mg/kg by iv administration; type: ADME, organism-based; parameters: dose 1 mg/kg, route intravenous; conditions: cercopithecidae, in vivo
# T1 sequence (P05556 whole entry): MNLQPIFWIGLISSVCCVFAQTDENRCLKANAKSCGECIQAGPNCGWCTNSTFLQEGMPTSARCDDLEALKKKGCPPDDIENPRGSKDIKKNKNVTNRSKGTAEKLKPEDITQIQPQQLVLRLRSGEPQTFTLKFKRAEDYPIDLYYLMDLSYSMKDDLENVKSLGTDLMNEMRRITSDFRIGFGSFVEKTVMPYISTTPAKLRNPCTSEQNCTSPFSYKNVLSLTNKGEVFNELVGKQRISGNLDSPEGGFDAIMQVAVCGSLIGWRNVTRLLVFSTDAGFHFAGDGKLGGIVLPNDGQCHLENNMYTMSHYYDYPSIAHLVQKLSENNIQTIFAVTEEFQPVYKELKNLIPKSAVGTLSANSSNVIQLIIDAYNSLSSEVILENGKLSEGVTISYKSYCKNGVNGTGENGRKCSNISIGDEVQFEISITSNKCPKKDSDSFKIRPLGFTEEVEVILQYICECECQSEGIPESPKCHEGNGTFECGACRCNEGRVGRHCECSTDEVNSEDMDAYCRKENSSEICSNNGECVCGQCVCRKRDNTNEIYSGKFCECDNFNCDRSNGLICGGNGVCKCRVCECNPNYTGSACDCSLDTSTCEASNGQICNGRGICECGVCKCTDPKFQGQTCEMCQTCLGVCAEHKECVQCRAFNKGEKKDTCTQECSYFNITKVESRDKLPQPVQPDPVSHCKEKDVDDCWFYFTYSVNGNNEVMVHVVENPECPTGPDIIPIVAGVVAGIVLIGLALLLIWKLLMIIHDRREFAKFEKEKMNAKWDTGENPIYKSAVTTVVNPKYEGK
# T1 sequence (P13612 whole entry): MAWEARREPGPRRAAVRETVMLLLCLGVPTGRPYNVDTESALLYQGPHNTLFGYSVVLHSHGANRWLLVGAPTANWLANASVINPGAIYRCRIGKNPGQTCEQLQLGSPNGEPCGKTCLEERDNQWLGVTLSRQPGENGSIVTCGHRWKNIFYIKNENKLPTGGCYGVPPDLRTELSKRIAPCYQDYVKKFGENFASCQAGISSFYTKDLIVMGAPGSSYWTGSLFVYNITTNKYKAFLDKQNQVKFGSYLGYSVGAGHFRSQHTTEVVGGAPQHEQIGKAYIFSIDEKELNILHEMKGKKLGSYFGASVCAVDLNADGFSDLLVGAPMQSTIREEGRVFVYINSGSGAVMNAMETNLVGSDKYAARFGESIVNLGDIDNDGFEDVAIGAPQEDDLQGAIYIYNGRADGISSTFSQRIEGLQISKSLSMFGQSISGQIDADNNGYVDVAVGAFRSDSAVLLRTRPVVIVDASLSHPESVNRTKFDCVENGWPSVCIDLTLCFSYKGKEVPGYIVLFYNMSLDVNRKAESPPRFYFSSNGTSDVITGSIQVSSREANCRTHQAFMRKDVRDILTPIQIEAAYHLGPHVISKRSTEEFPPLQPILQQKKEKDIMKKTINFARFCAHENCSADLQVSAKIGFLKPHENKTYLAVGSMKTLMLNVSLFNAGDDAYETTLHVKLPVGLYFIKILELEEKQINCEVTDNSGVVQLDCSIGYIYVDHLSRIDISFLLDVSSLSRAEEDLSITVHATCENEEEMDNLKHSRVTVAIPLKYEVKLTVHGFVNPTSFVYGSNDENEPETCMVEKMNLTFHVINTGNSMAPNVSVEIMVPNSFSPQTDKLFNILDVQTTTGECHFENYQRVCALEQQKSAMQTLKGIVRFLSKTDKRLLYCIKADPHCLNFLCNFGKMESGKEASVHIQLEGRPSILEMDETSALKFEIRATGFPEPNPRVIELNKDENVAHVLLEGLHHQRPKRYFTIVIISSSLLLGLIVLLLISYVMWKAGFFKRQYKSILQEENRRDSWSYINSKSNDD
SMILES,IC50 (Integrin alpha-4/beta-1 [1]) [pM],IC50 (Integrin alpha-4/beta-1 [2]) [pM],Bound (Integrin alpha-4/beta-1 [3]) [%],IC50 (Integrin alpha-4/beta-1 [4]) [pM],other results
C[C@@]1(C(=O)N[C@@H](Cc2ccc(NC(=O)C3=C(Cl)CC(=O)N=C3Cl)cc2)C(=O)O)CCCN1S(=O)(=O)c1cc(Cl)cc(Cl)c1,100,80,61,80,
C[n+]1ccc(C(=O)Nc2ccc(C[C@H](NC(=O)[C@]3(C)CCCN3S(=O)(=O)c3cc(Cl)cc(Cl)c3)C(=O)O)cc2)c(Cl)c1,160,310,0,310,
C[C@@]1(C(=O)N[C@@H](Cc2ccc(NC(=O)c3c(Cl)ccnc3Cl)cc2)C(=O)O)CCCN1S(=O)(=O)c1cc(Cl)cc(Cl)c1,110,110,57,110,clearance [5]: 32 mL/min/kg; bioavailability [6]: 1.6%; half-life [7]: 1.7 h; half-life [8]: 2.3 h; clearance [9]: 1.9 mL/min/kg; bioavailability [10]: 4%; bioavailability [11]: 0.4%; Unbound plasma (Canis familiaris): 2.2%; clearance [12]: 7.5 mL/min/kg; Unbound plasma (Rattus norvegicus): 0.2%; half-life [13]: 0.73 h; Unbound plasma [14]: 0.15%
C[n+]1cc(Cl)c(C(=O)Nc2ccc(C[C@H](NC(=O)[C@]3(C)CCCN3S(=O)(=O)c3cc(Cl)cc(Cl)c3)C(=O)O)cc2)c(Cl)c1,190,100,61,100,
C[C@@]1(C(=O)N[C@@H](Cc2ccc(NC(=O)c3cccnc3)cc2)C(=O)O)CCCN1S(=O)(=O)c1cc(Cl)cc(Cl)c1,270,250,12,250,
COc1cc(CN2CCCC2)cc(OC)c1-c1ccc(C[C@H](NC(=O)[C@]2(C)CCCN2S(=O)(=O)c2cc(Cl)cc(Cl)c2)C(=O)O)cc1,100,90,43,90,
O=C(Nc1ccc(C[C@H](NC(=O)[C@@H]2CCCN2S(=O)(=O)c2cccc(Cl)c2)C(=O)O)cc1)c1c(Cl)cncc1Cl,90,100,37,100,
C[C@@]1(C(=O)N[C@@H](Cc2ccc(NC(=O)c3c(Cl)cccc3Cl)cc2)C(=O)O)CCCN1S(=O)(=O)c1cc(Cl)cc(Cl)c1,210,150,15,150,
COc1cccc(OC)c1-c1ccc(C[C@H](NC(=O)[C@]2(C)CCCN2S(=O)(=O)c2cc(Cl)cc(Cl)c2)C(=O)O)cc1,,90,1,90,
C[C@@]1(C(=O)N[C@@H](Cc2ccc(NC(=O)c3cnccc3Cl)cc2)C(=O)O)CCCN1S(=O)(=O)c1cc(Cl)cc(Cl)c1,140,210,26,210,
COc1ccnc(Cl)c1C(=O)Nc1ccc(C[C@H](NC(=O)[C@]2(C)CCCN2S(=O)(=O)c2cc(Cl)cc(Cl)c2)C(=O)O)cc1,130,80,40,80,
O=C(Nc1ccc(C[C@H](NC(=O)[C@@H]2CCCN2S(=O)(=O)c2ccccc2)C(=O)O)cc1)c1c(Cl)cncc1Cl,150,130,19,130,
O=C(Nc1ccc(C[C@H](NC(=O)[C@@H]2CCCN2S(=O)(=O)c2cc(Cl)cc(Cl)c2)C(=O)O)cc1)c1c(Cl)cncc1Cl,100,70,62,70,
CSc1cnccc1C(=O)Nc1ccc(C[C@H](NC(=O)[C@]2(C)CCCN2S(=O)(=O)c2cc(Cl)cc(Cl)c2)C(=O)O)cc1,360,1560,0,1560,
